Reference: patent US12319912B2, “MicroRNA expression promoting agent and food or beverage for promoting expression of microRNA” (Kewpie Corporation, priority 2019, dated 2025)

Key:
Type in all cases: in vivo, nude mice (BALB/c-nu/nu)
Settings in all cases: 0.25% (w/w) pterostilbene in feed, MM-231-luc-D3H2LN tumors removed at 21 days, female nude mice
[1] = system: let-7a; experiment: Expression level of let-7a in removed tumors after oral administration of pterostilbene-containing feed (quantitative RT-PCR)
Protocol: (§1) An animal feed for test (pterostilbene-containing powdery animal feed) was prepared by the following method. That is, first, 50 g of corn oil was weighed and heated to 70° C. Pterostilbene was added to the heated corn oil and was dissolved therein. Reagents other than corn oil and pterostilbene (other reagents) were ground in a mortar, and the mixture was mixed. The corn oil in which pterostilbene was dissolved was added to the mixture of other reagents, and the mixture was mixed by sufficiently grinding in a mortar. Subsequently, the mixture was further mixed with a stirrer for about 30 minutes, and thus an animal feed for test was prepared. […]
(§2) At a time point where one week had passed after grouping, the mice in each group were subjected to a cancer cell transplantation experiment. […] Confirmation of whether the cancer cells were transplanted was achieved by leaving the animals for a while after transplantation, intraperitoneally administering a 15 mg/ml luciferin solution (Beetle Luciferin, Potassium Salt, Promega Corporation) in an amount of 150 mg/kg, and measuring cell-derived luminescence (luciferase activity) with IVIS Spectrum (PerkinElmer, Inc.) after about 10 minutes. […] The body weights of the mice were measured in a timely manner. […] Then, luminescence was observed over time with IVIS spectrum every other week from the day of administration initiation. […]

[2] = system: miR-126; experiment: Expression level of miR-126 in removed tumors after oral administration of pterostilbene-containing feed (quantitative RT-PCR)
Protocol: as §1, §2

[3] = system: miR-34a; experiment: Expression level of miR-34a in removed tumors after oral administration of pterostilbene-containing feed (quantitative RT-PCR)
Protocol: as §1, §2

[4] = system: miR-16; experiment: Expression level of miR-16 in removed tumors after oral administration of pterostilbene-containing feed (quantitative RT-PCR)
Protocol: as §1, §2

[5] = system: miR-141; experiment: Expression level of miR-141 in removed tumors after oral administration of pterostilbene-containing feed (quantitative RT-PCR)
Protocol: as §1, §2

[6] = system: miR-200c; experiment: Expression level of miR-200c in removed tumors after oral administration of pterostilbene-containing feed (quantitative RT-PCR)
Protocol: as §1, §2

[7] = system: miR-193b; experiment: Expression level of miR-193b in removed tumors after oral administration of pterostilbene-containing feed (quantitative RT-PCR)
Protocol: as §1, §2

COc1cc(/C=C/c2ccc(O)cc2)cc(OC)c1 [pterostilbene, Pterostilbene]
promoted: expression of let-7a as compared to the control group [1] | expression of miR-126 as compared to the control group [2] | expression of miR-34a as compared to the control group [3] | expression of miR-16 as compared to the control group [4] | expression of miR-141 as compared to the control group [5] | expression of miR-200c as compared to the control group [6] | expression of miR-193b as compared to the control group [7]
